Experimental data published in patent publication US20250228239A1, “MOLECULES HAVING PESTICIDAL UTILITY, AND INTERMEDIATES, COMPOSITIONS, AND PROCESSES, RELATED THERETO” (priority 2024, published 2025).
Where two headings read alike, the source gives them in different places.

Assays:
Format in all cases: in vivo
[1] = system: Cabbage Looper (Trichoplusia ni, TRIPNI); experiment: Bioassays on Cabbage Looper (CL), 128-well diet tray assay; settings: Trichoplusia ni; for mortality at 50 µg/cm2: 168 h, second instar larvae, 50 μg/cm^2 of test molecule on artificial diet, 25° C., five to seven days, average of eight wells, read-out: CL % Control (or Mortality) rating
Procedure, shortened: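 One to five second-instar larvae per well on artificial diet surface-treated with 50 μg/cm^2 test molecule (applied in 90:10 acetone-water, dried). Held 5–7 days at 25° C, 14:10 light-dark; percent mortality recorded per well and averaged over eight wells.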

[2] = system: Yellow Fever Mosquito (Aedes aegypti, AEDSAE); settings: for YFM rating: Yellow Fever Mosquito, Table ABC / ABC-DP rating; for YFM % Control (or Mortality) rating: about 1 day-old larvae, 4000 ppm master solution diluted with 90:10 water/acetone, 15 μL per well plus 220 μL larval mixture, 3 days; for YFM: Table ABC: Biological Results, species YFM
Experimental: Certain molecules disclosed in this document were tested against YFM using procedures described in the following paragraph. In the reporting of the results, the “GPA & YFM Rating Table” was used (See Table Section).
Master plates containing 400 μg of a molecule dissolved in 100 μL of dimethyl sulfoxide (DMSO) (equivalent to a 4000 ppm solution) are used. A master plate of assembled molecules contains 15 μL per well. To this plate, 135 μL of a 90:10 water/acetone mixture is added to each well. A robot (Biomek® NXP Laboratory Automation Workstation) is programmed to dispense 15 μL aspirations from the master plate into an empty 96-well shallow plate (“daughter” plate). There are 6 reps (“daughter” plates) created per master. The created “daughter” plates are then immediately infested with YFM larvae.
The day before plates are to be treated, mosquito eggs are placed in Millipore water containing liver powder to begin hatching (4 g into 400 mL). After the “daughter” plates are created using the robot, they are infested with 220 μL of the liver powder/larval mosquito mixture (about 1 day-old larvae). After plates are infested with mosquito larvae, a non-evaporative lid is used to cover the plate to reduce drying. Plates are held at room temperature for 3 days prior to grading. After 3 days, each well is observed and scored based on mortality. The results are indicated in the table entitled “Table ABC: Biological Results” (See Table Section).

[3] = system: Beet Armyworm (Spodoptera exigua, LAPHEG); experiment: Bioassays on Beet Armyworm (BAW), 128-well diet tray assay; settings: Spodoptera exigua; for mortality at 50 µg/cm2: 168 h, second instar larvae, 50 μg/cm^2 of test molecule on artificial diet, 25° C., five to seven days, average of eight wells, read-out: BAW % Control (or Mortality) rating
Procedure, shortened: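 Larvae at second instar are exposed on dried, compound-treated diet (50 μg/cm^2, delivered in 90:10 acetone-water) in eight replicate wells. After five to seven days at 25° C., 14:10 light-dark, percent mortality in each well is scored and the eight wells averaged.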

[4] = Cabbage Looper, Table ABC / ABC-DP rating, read-out: CL rating
[5] = Beet Armyworm, Table ABC / ABC-DP rating, read-out: BAW rating
[6] = Table ABC: Biological Results, species CL, read-out: CL
[7] = Table ABC: Biological Results, species BAW, read-out: BAW

Compound	mortality at 50 µg/cm2 [1]	pest or weed control at 50 µg/cm2 [1, 4]	YFM rating [2]	YFM % Control (or Mortality) rating [2]	mortality at 50 µg/cm2 [3]	pest or weed control at 50 µg/cm2 [3, 5]	pest or weed control at 50 µg/cm2 [1, 6]	YFM [2]	pest or weed control at 50 µg/cm2 [3, 7]
Cc1cc(N)ccc1NC(=O)c1cc(NC(=O)[C@H]2[C@H](c3ccc(Cl)c(Cl)c3)C2(Cl)Cl)ccc1Cl (relative stereo) [DP1, trans-N-(4-amino-2-methylphenyl)-2-chloro-5-(2,2-dichloro-3-(3,4-dichlorophenyl)cyclopropane-1-carboxamido)benzamide]	50 to 100%	50 to 100%	A (80–100)	A (80–100)	50 to 100%	50 to 100%			
Cc1cc(N)ccc1NC(=O)c1cc(NC(=O)[C@H]2[C@H](c3cc(Cl)cc(Cl)c3)C2(Cl)Cl)ccc1Cl (relative stereo) [DP4, trans-N-(4-Amino-2-methylphenyl)-2-chloro-5-(2,2-dichloro-3-(3,5-dichlorophenyl)cyclopropane-1-carboxamido)benzamide]	50 to 100%	50 to 100%	A (80–100)	A (80–100)	50 to 100%	50 to 100%			
Cc1cc(NC(=O)OC(C)(C)C)ccc1NC(=O)c1cc(NC(=O)[C@H]2[C@H](c3cc(Cl)cc(Cl)c3)C2(Cl)Cl)ccc1Cl (relative stereo) [DP10, trans-tert-butyl-(4-(2-chloro-5-(2,2-dichloro-3-(3,5-dichlorophenyl)cyclopropane-1-carboxamido)benzamido)-3-methylphenyl)carbamate]	50 to 100%	50 to 100%	A (80–100)	A (80–100)	50 to 100%	50 to 100%			
O=C(Nc1cc(F)c(F)c(Br)c1)c1cc(NC(=O)[C@H]2[C@H](c3cc(Cl)cc(Cl)c3)C2(Cl)Cl)ccc1Cl (relative stereo) [DP11, trans-N-(3-Bromo-4,5-difluorophenyl)-2-chloro-5-(2,2-dichloro-3-(3,5-dichlorophenyl)cyclopropane-1-carboxamido)benzamide]	50 to 100%	50 to 100%	A (80–100)	A (80–100)	50 to 100%	50 to 100%			
O=C(Nc1ccc(F)cc1F)c1cc(NC(=O)[C@H]2[C@H](c3cc(C(F)(F)F)ccc3Cl)C2(Cl)Cl)ccc1Cl (relative stereo) [F1004, trans-2-Chloro-5-(2,2-dichloro-3-(2-chloro-5-(trifluoromethyl)phenyl)cyclopropane-1-carboxamido)-N-(2,4-difluorophenyl)benzamide]							50 to 100%	A (80–100)	50 to 100%
O=C(Nc1ccc(F)cc1)c1cc(NC(=O)[C@H]2[C@H](c3cc(Cl)c(Cl)c(Br)c3)C2(Cl)Cl)ccc1Cl (relative stereo) [F1005, trans-5-(3-(3-bromo-4,5-dichlorophenyl)-2,2-dichlorocyclopropane-1-carboxamido)-2-chloro-N-(4-fluorophenyl)benzamide]							50 to 100%	A (80–100)	50 to 100%
O=C(Nc1ccc(F)cc1F)c1cc(NC(=O)[C@H]2[C@H](c3cc(Cl)c(Br)c(Cl)c3)C2(Cl)Cl)ccc1Cl (relative stereo) [F1006, trans-5-(3-(4-Bromo-3,5-dichlorophenyl)-2,2-dichlorocyclopropane-1-carboxamido)-2-chloro-N-(2,4-difluorophenyl)benzamide]							50 to 100%	A (80–100)	50 to 100%
O=C(Nc1ccc(F)cc1F)c1cc(NC(=O)[C@H]2[C@H](c3c(F)c(F)c(F)c(F)c3F)C2(Cl)Cl)ccc1Cl (relative stereo) [F1009, trans-2-Chloro-5-(2,2-dichloro-3-(perfluorophenyl)cyclopropane-1-carboxamido)-N-(2,4-difluorophenyl)benzamide]							50 to 100%	A (80–100)	50 to 100%
Cc1cc(NCc2ccc(Cl)cc2)ccc1NC(=O)c1cc(NC(=O)[C@H]2[C@H](c3cc(Cl)cc(Cl)c3)C2(Cl)Cl)ccc1Cl (relative stereo) [F1010, trans-2-chloro-N-(4-((4-chlorobenzyl)amino)-2-methylphenyl)-5-(2,2-dichloro-3-(3,5-dichlorophenyl)cyclopropane-1-carboxamido)benzamide]							50 to 100%	A (80–100)	50 to 100%
O=C(Nc1ccc(F)cc1F)c1cc(NC(=O)[C@H]2[C@H](c3cc(F)c(F)c(Br)c3)C2(Cl)Cl)ccc1Cl (relative stereo) [F1011, trans-5-(3-(3-Bromo-4,5-difluorophenyl)-2,2-dichlorocyclopropane-1-carboxamido)-2-chloro-N-(2,4-difluorophenyl)benzamide]							50 to 100%	A (80–100)	50 to 100%
CCNC(=O)c1cc(NC(=O)[C@H]2[C@H](c3ccc(F)c(Cl)c3)C2(Cl)Cl)cc(F)c1OC (relative stereo) [F2057, trans-5-(2,2-Dichloro-3-(3-chloro-4-fluorophenyl)cyclopropane-1-carboxamido)-N-ethyl-3-fluoro-2-methoxybenzamide]		50 to 100%	A (80–100)						
O=C(NNc1ccc(C(F)(F)F)cc1)c1cc(NC(=O)[C@H]2[C@H](c3cc(Cl)cc(Cl)c3)C2(Cl)Cl)ccc1Cl (relative stereo) [F2571, trans-2,2-Dichloro-N-(4-chloro-3-(2-(4-(trifluoromethyl)phenyl)hydrazine-1-carbonyl)phenyl)-3-(3,5-dichlorophenyl)cyclopropane-1-carboxamide]			A (80–100)	A (80–100)					
O=C(NCC(F)(F)C(F)(F)F)c1c(Cl)ccc(NC(=O)[C@H]2[C@H](c3ccc(F)c(Cl)c3)C2(Cl)Cl)c1F [F2073, 6-Chloro-3-((1R,3R)-2,2-dichloro-3-(3-chloro-4-fluorophenyl)cyclopropane-1-carboxamido)-2-fluoro-N-(2,2,3,3,3-pentafluoropropyl)benzamide]		50 to 100%				50 to 100%			
O=C(NCCCCl)c1c(Cl)ccc(NC(=O)[C@H]2[C@H](c3ccc(F)c(Cl)c3)C2(Cl)Cl)c1F [F2074, 6-Chloro-N-(3-chloropropyl)-3-((1R,3R)-2,2-dichloro-3-(3-chloro-4-fluorophenyl)cyclopropane-1-carboxamido)-2-fluorobenzamide]		50 to 100%				50 to 100%			
CCNC(=O)c1cc(NC(=O)[C@H]2[C@H](c3ccc(F)c(C(F)(F)F)c3)C2(Cl)Cl)c(F)cc1Cl [F2083, 2-Chloro-5-((1R,3R)-2,2-dichloro-3-(4-fluoro-3-(trifluoromethyl)phenyl)cyclopropane-1-carboxamido)-N-ethyl-4-fluorobenzamide]		50 to 100%	B (More than 0 – Less than 80)						
O=C(NCC(F)(F)F)c1cc(NC(=O)[C@H]2[C@H](c3ccc(F)c(C(F)(F)F)c3)C2(Cl)Cl)c(F)cc1Cl [F2084, 2-Chloro-5-((1R,3R)-2,2-dichloro-3-(4-fluoro-3-(trifluoromethyl)phenyl)cyclopropane-1-carboxamido)-4-fluoro-N-(2,2,2-trifluoroethyl)benzamide]		50 to 100%				50 to 100%			
O=C(NCC(F)(F)F)c1cc(NC(=O)[C@H]2[C@H](c3ccc(F)c(F)c3)C2(Cl)Cl)ccc1Cl [F2099, 2-Chloro-5-((1R,3R)-2,2-dichloro-3-(3,4-difluorophenyl)cyclopropane-1-carboxamido)-N-(2,2,2-trifluoroethyl)benzamide]		50 to 100%				50 to 100%			
O=C(NCC(F)(F)F)c1cc(NC(=O)[C@@H]2[C@@H](c3ccc(F)c(F)c3)C2(Cl)Cl)ccc1Cl [F2100, 2-Chloro-5-((1S,3S)-2,2-dichloro-3-(3,4-difluorophenyl)cyclopropane-1-carboxamido)-N-(2,2,2-trifluoroethyl)benzamide]		50 to 100%				50 to 100%			
